Read-outs that look alike come from different tables or passages of the source.
Legend:
brain p-synuclein = test: synuclein phosphorylation in brains of FVB mice treated with kainic acid (immunohistochemistry, ELISA); format: in vivo, mouse; settings: immunohistochemistry and ELISA
From the text: This example describes up regulation of phosphorylated α-synuclein (p-synuclein) in wildtype mice after kainic acid administration. Several articles have reported that excitotoxicity can result in an upregulation of polo-like kinases. […] Thus the kainic acid model provides better understanding the involvement of the PLK2 p-synuclein pathway in neurodegeneration and may be used in screening assays of the invention.

[1] = tested on: synuclein phosphorylation by endogenous kinase; test: kinase inhibitor treatment of mouse cortical cultures (MCC), total and phospho-synuclein ELISA; format: cell-based
Protocol: Mouse cortical cultures from fetal (i) Swiss-Webster, (ii) C56BL/6 WT and (iii) C56BL/6 E46K-Synuclein Trangenic mice were prepared and maintained in B27/DMEM/1% Penicillin-Streptomycin at 37° C./10% CO2 for three to fourteen days and then treated with kinase inhibitors.
Cultures were exposed to inhibitors for two hours in B27/DMEM/1% Penicillin-Streptomycin. Cells were immediately washed in 100 μL of PBS plus Mg^2+ and Ca^2+, and harvested in ice-cold CEB minus EGTA plus protease inhibitors, frozen on dry ice and stored at −80° C. until processed. A Micro BCA (Pierce) total protein assay, and total synuclein and phospho-synuclein ELISAs were performed on each plate of treated cells using standard methods.

[2] = tested on: synuclein phosphorylation (serine-129); test: inhibition of synuclein phosphorylation across the cellular paradigms (primary neuronal cultures and 293 cells); format: cell-based, mouse, rat and human; settings: Homo sapiens, HEK293; most EC50 values, all cellular paradigms; read-out: EC50 inhibition of synuclein phosphorylation, cellular paradigms
panel of 260 kinases = test: screen against a panel of 260 kinases at 10 uM; format: biochemical
[3] = tested on: endogenous kinase (synuclein phosphorylation); test: HEK-293 cells overexpressing synuclein with empty vector, inhibition of synuclein phosphorylation; format: cell-based, human; settings: Homo sapiens
Protocol: All vectors had the sequence coding for the protein of interest. Transfection was accomplished using Lipofectamine 2000 (Invitrogen, Carlsbad, Calif.) with 0.08 μg vector. Cells were washed and harvested 48 hours post-transfection. A Micro BCA (Pierce) total protein assay and total synuclein and phospho-synuclein ELISAs were performed on each plate of treated cells.

Compound	p-synuclein levels in brain (brain p-synuclein)	EC50 ([1]; Mus musculus, read-out: EC50, E46K-Syn TG MCC) [nM]	EC50 ([1]; Swiss-Webster mouse cortical cultures, read-out: EC50, Swiss-Webster MCC) [nM]	EC50 ([1]; WT mouse cortical cultures, read-out: EC50, WT-MCC) [nM]	EC50 [2] [nM]	inhibition in panel of 260 kinases (panel of 260 kinases)	EC50 ([3]; HEK293, read-out: EC50, Endogenous Kinase (293)) [nM]	EC50 ([3]; HEK293, read-out: EC50 Based on the Percent Inhibition of Synuclein Phosphorylation, Synuclein + Vector) [nM]	EC50 ([3]; HEK293, read-out: EC50 synuclein phosphorylation, endogenous kinase) [nM]
C=C(C)[C@H]1CN[C@H](C(=O)O)[C@H]1CC(=O)O [kainic acid]	Increased levels								
CC[C@@H]1C(=O)N(C)c2cnc(Nc3ccc(C(=O)NC4CCN(C)CC4)cc3OC)nc2N1C1CCCC1 [BI 2536, 4-[[(7r)-8-cyclopentyl-7-ethyl-5,6,7,8-tetrahydro-5-methyl-6-oxo-2-pteridinyl]amino]-3-methoxy-n-(1-methyl-4-piperidinyl)-benzamide]		< 100	92	< 100	≤ 100	very potent in inhibiting PLK2 and PLK3	54	99	99

— US20110207796A1, “ALPHA-SYNUCLEIN KINASE” (Elan Pharma International Limited, priority 2008, published 2011)
